The source of these data is patent US11220674B2, “Stabilization of dehydrogenases with stable coenzymes” (ROCHE DIABETES CARE, INC., priority 2009, dated 2022).

Data set [1] deals with T1, alcohol dehydrogenase from yeast (Saccharomyces cerevisiae, UniProt P00330).
T1 sequence (P00330 1-348): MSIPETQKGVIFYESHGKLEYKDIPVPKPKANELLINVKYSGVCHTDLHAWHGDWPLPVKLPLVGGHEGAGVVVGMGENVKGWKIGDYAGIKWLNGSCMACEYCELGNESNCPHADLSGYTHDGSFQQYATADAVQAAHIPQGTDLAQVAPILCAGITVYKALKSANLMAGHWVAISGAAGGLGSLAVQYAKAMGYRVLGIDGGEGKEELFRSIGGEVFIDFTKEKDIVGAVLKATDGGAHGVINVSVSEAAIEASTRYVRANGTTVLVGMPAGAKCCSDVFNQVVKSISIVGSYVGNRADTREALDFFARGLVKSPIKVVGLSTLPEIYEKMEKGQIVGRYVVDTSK
Nature of the data set: Stability of alcohol dehydrogenase in liquid phase at 35° C. with coenzyme (residual activity). In kind it is biochemical. The following applies: after 65 hours at 35° C. On the procedure: FIG. 14 is a depiction of the stability of alcohol dehydrogenase from yeast in the presence of NAD and cNAD, respectively, in liquid phase at 35° C. over a period of 65 hours. Test conditions: ADH 5 mg/ml; NAD and cNAD, respectively, 50 mg/ml; buffer: 75 mM Na4P207, glycine, pH 9.0; temperature 35° C.
(§1) cNAD or NAD were added to an alcohol detection solution. These mixtures were stored at 35° C. The stability of the enzyme was then checked at regular intervals, and the residual activity of the enzyme was determined.
After 65 hours at 35° C., the residual activity of alcohol dehydrogenase in the presence of the native coenzyme NAD is about 6%, whereas the residual activity of the enzyme in the presence of the artificial coenzyme cNAD is still about 60%.

The next data set has as its target glucose dehydrogenase (Bacillus subtilis, UniProt P12310). In words: Electrochemical glucose determination with GlucDH, coenzyme and mediator (current). The settings on record: 25 mM coenzyme; mediator 1-(3-carboxypropoxy)-5-ethylphenazinium trifluoromethanesulfonate. The protocol:
FIG. 20 is a depiction of the current measured as a function of the glucose concentration in the electrochemical determination of glucose using glucose dehydrogenase in the presence of NAD and cNAD, respectively. Test conditions: 25 mM NAD and cNAD, respectively; 2.5 seconds delay; 5 seconds measurement time.
As alternative to photometry it is also possible to employ an electrochemical measurement for the purpose of determining analytes.

Data set [2] has as its target glucose dehydrogenase (GlucDH), wild-type (Bacillus subtilis, UniProt P12310). In words: Residual activity of GlucDH after dry storage on film with coenzyme. In kind it is biochemical. The protocol: (§2) Carba-NAD (FIG. 1A) or NAD were added to the glucose-specific GlucDH. These formulations were in each case applied to Pokalon film (Lonza) and, after drying, stored under warm and moist conditions (32° C., 85% relative humidity). The reaction kinetics and the function plot were subsequently determined at regular intervals. In parallel, at each of the times of measurement a cNAD/NAD analysis and a determination of the residual activity of the enzyme were carried out.
The result of the determination of residual activity of the active GlucDH enzyme after 5 weeks at 32° C. and 85% relative humidity (FIG. 7A) is completely surprising. […] After 24 weeks at 32° C. and 85% relative humidity (FIG. 7B), the residual activity of the enzyme on stabilization with cNAD is still about 25%.

The target in data set [3] is T1, alcohol dehydrogenase from yeast. Nature of the data set: SDS gel electrophoresis of alcohol dehydrogenase after storage with coenzyme. On the procedure: Test conditions: MW, 10 220 kDa markers; 1: ADH, 65 hours at 6° C.; 2: ADH/cNAD, 65 hours at 6° C.; 3: ADH/NAD, 65 hours at 6° C.; 4: ADH, 65 hours at 35° C.; 5: ADH/cNAD, 65 hours at 35° C.; 6: ADH/NAD, 65 hours at 35° C.
Test conditions: MW, 10 220 kDa markers; 1: ADH/NAD, 0 days; 2: ADH/NAD, 1 day; 3: ADH/NAD, 2 days; 4: ADH/NAD, 3 days; 5: ADH/NAD, 5 days; 6: ADH/cNAD, 0 days; 7: ADH/cNAD, 1 day; 8: ADH/cNAD, 2 days; 9: ADH/cNAD, 3 days; 10: ADH/cNAD, 6 days.
as §1

Data set [4] concerns the target glucose dehydrogenase (GlucDH) (Bacillus subtilis, UniProt P12310). In words: Stability of GlucDH in liquid phase at 50° C. with coenzyme (residual activity). The data set is classed as biochemical. The protocol: FIG. 11A is a depiction of the stability of glucose dehydrogenase in the presence of NAD and cNAD, respectively, in liquid phase at 50° C. over a period of 4 days Test conditions: GlucDH 10 mg/ml; NAD and cNAD, respectively, 12 mg/ml; buffer: 0.1 M Tris, 1.2 M NaCl, pH 8.5; temperature 50° C.
FIG. 11B is a depiction of the stability of glucose dehydrogenase in the presence of NAD and cNAD, respectively, in liquid phase at 50° C. over a period of 14 days at the same test conditions as FIG. 11A.
After 95 hours at 50° C., the residual activity of glucose dehydrogenase in the presence of the native coenzyme NAD is ≈5%, whereas the residual activity of GlucDH in the presence of the artificial coenzyme cNAD is 75% (FIG. 11A). After storage at 50° C. for 336 hours, the residual activity of the enzyme stabilized with NAD is now only about 1%; the residual activity of the enzyme stored in the presence of cNAD is observed to be still about 70%.

Data set [5] can be described thus: Residual content of coenzyme in glucose detection reagent after dry storage on film (cNAD/NAD analysis). In kind it is physicochemical. The following applies: storage at 32° C. and 85% relative humidity for 24 weeks. On the procedure:
as §2
The relation between structure of the coenzyme and its stability over a predetermined period is evident from FIG. 6. According to this, the residual content of cNAD in a glucose detection reagent after storage (at 32° C. and 85% relative humidity) for 24 weeks is still about 80% of the initial level, whereas the content of NAD in a glucose detection reagent stabilized with NAD declines after only 5 weeks to about 35% of the initial level and, by extrapolation, is reduced to zero after about 17 weeks.

SMILES strings stand for the structures.

glucose dehydrogenase (GlucDH), wild-type, sequence (P12310 whole entry): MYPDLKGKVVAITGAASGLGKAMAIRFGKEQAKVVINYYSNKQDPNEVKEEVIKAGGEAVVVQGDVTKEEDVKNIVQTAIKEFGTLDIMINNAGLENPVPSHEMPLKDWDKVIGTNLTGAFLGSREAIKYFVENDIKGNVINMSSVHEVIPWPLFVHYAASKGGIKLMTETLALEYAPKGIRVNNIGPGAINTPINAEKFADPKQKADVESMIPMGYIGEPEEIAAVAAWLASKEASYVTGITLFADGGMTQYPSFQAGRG
glucose dehydrogenase (GlucDH), sequence (P12310 whole entry): as above
glucose dehydrogenase, sequence (P12310 whole entry): as above

Turning to `NC(=O)c1ccc[n+]([C@@H]2C[C@H](COP(=O)([O-])OP(=O)(O)OC[C@H]3O[C@@H](n4cnc5c(N)ncnc54)[C@H](O)[C@@H]3O)[C@@H](O)[C@H]2O)c1` [cNAD, carba-NAD], the “residual activity of alcohol dehydrogenase” value in data set [1] is “about 60%”. In addition, at glucose dehydrogenase, the “current required to reoxidize the reduced mediator versus glucose concentration” value is on record as “linearly dependent on the glucose concentration”. For the same compound, the “residual activity of GlucDH enzyme” value in data set [2] (after 5 weeks at 32° C. and 85% relative humidity, versus samples stored in refrigerator with desiccant) was 70%; in data set [2] (after 24 weeks at 32° C. and 85% relative humidity), “about 25%”. The “alcohol dehydrogenase band in SDS gel” value in data set [3] (storage at 35° C., NAD 5 days, cNAD 6 days) is on record as “distinctly less decomposition of the enzyme”; in data set [3] (storage for 65 hours at 35° C. (versus 6° C.)), “differ only slightly”. Moreover, the “residual activity of glucose dehydrogenase” value in data set [4] (after 95 hours at 50° C.) is on record as 75%; in data set [4] (storage at 50° C. for 336 hours), “about 70%”. Further, the “residual content of coenzyme in glucose detection reagent” value in data set [5] is on record as “about 80 % of the initial level”.
